Values of other authors in article PMC10268011 (ACS Omega, 2023).

- systemic bioavailability: high systemic bioavailability
Compound: COc1ccc(COc2ccc(Cc3cnc(N)nc3N)cc2OC)cc1 [GW2580, 5-(3-Methoxy-4-((4-Methoxybenzyl)Oxy)Benzyl)Pyrimidine-2,4-Diamine]
